We go through 15 compounds from ChEMBL document CHEMBL2331186, “Five new phenolic glycosides from Hedyotis scandens” (Bioorg Med Chem Lett, 2013).

Activity calls are given as the source filed them. The calls are words filed in the database; no cut-off is given here.

One experiment relates to Respiratory syncytial virus. Kind of experiment: Antiviral activity against Respiratory syncytial virus assessed as reduction of virus-induced cytopathic effect at maximal non-toxic concentration. It counts as functional, organism-based.
Consider `N#C[C@H](O[C@@H]1O[C@H](CO[C@@H]2OC[C@](O)(COC(=O)/C=C/c3ccc(O)cc3)[C@H]2O)[C@@H](O)[C@H](O)[C@H]1O)c1ccccc1`, for which the result was inactive.

For `COC(=O)[C@@H](Cc1ccc(O)c(O)c1)OC(=O)/C=C/c1ccc(O)c(O)c1`, the result was inactive.

Turning to `O=C(/C=C/c1ccc(O)c(O[C@@H]2O[C@H](CO)[C@@H](O)[C@H](O)[C@H]2O)c1)O/C=C\c1ccc(O)c(O)c1`, the result was inactive.

On to `CCCCOC(=O)[C@@H](Cc1ccc(O)c(O)c1)OC(=O)/C=C/c1ccc(O)c(O[C@@H]2O[C@H](CO)[C@@H](O)[C@H](O)[C@H]2O)c1`, for which the result was inactive.

`COc1cc(O[C@@H]2O[C@H](CO[C@@H]3OC[C@](O)(COC(=O)/C=C/c4ccc(O)cc4)[C@H]3O)[C@@H](O)[C@H](O)[C@H]2O)cc(OC)c1OC`: the result was inactive.

Turning to `CCCCOC(=O)[C@@H](Cc1ccc(O)c(O)c1)OC(=O)/C=C/c1ccc(O)c(O)c1`, the outcome was inactive.

For the compound `Cc1occc(=O)c1O[C@@H]1O[C@H](CO[C@@H]2OC[C@](O)(COC(=O)/C=C/c3ccc(O)cc3)[C@H]2O)[C@@H](O)[C@H](O)[C@H]1O`, the outcome was inactive.

Turning to `COC(=O)[C@@H](Cc1ccc(O)c(O)c1)OC(=O)/C=C/c1ccc(OC)c(O)c1`, the result was inactive.

For the compound `Cc1occc(=O)c1O[C@@H]1O[C@H](CO[C@@H]2OC[C@](O)(COC(=O)/C=C/c3ccc(O)c(O)c3)[C@H]2O)[C@@H](O)[C@H](O)[C@H]1O`, the result was inactive.

Turning to `O=C(/C=C/c1ccc(O)c(O)c1)O[C@H](Cc1ccc(O)c(O)c1)C(=O)O`, the result was inactive.

Consider `O=C(/C=C/c1ccc(O)c(O)c1)O/C=C\c1ccc(O)c(O)c1`, for which the result was inactive.

As for `COC(=O)[C@@H](Cc1ccc(O)c(O)c1)OC(=O)/C=C/c1ccc(O)c(O[C@@H]2O[C@H](CO)[C@@H](O)[C@H](O)[C@H]2O)c1`, the outcome was inactive.

As to `O=C(O)/C=C/c1ccc(O)c(O)c1`, the result was inactive.

A further experiment has as its system Respiratory syncytial virus. Kind of experiment: Antiviral activity against Respiratory syncytial virus assessed as reduction of virus-induced cytopathic effect. The class given is functional, organism-based.
Consider `Cc1occc(=O)c1O[C@@H]1O[C@H](CO[C@@H]2OC[C@](O)(CO)[C@H]2O)[C@@H](O)[C@H](O)[C@H]1O`, for which the result was Active.

Take `OCCc1cc(O)cc(O[C@@H]2O[C@H](CO)[C@@H](O)[C@H](O)[C@H]2O)c1`: the result was Active.
